Assay results taken from patent US20150080462A1, “COMPOSITIONS AND METHODS FOR THE TREATMENT OR PREVENTION OF DISORDERS RELATING TO OXIDATIVE STRESS” (THE JOHNS HOPKINS UNIVERSITY, priority 2005, published 2015).

Columns and labels:
[1] = tested on: MCAO induced brain injury; experiment: Corrected infarct volume (TTC) after MCAO, EC treatment; assay type: in vivo, mouse
Protocol: After 24 or 72 h of reperfusion, mice were anesthetized, and their brains dissected out and cut into 2-mm coronal sections. Brain slices were stained with 2,3,5-triphenyltetrazolium chloride (TTC, Sigma Co, St. […] Cerebral cortex and striatum volumes in ipsilateral necrotic lesion and contralateral normal side of the brain were measured multiplying the sum of the areas by the distance between sections. Infarct volume was indirectly calculated by subtracting the volume of intact tissue in the ipsilateral hemisphere from that of the contralateral hemisphere and expressed as the percentage of infarct area to the total hemispheric area for each slice. Epicatechin (EC) was given orally (per kilogram of body weight) through gavage and precautions were taken not only to minimize the stress to animals but also careful administration of the drug solution. For pre-treatment studies, a single dose of EC was given 90 minutes before middle cerebral artery occlusion (MCAO). […] MCAO procedure was slightly modified from the methods previously published by Shah et al. (Shah, et al. in press, 2006). […] To measure relative cerebral blood flow (CBF), mice were placed in a porcine posture on a temperature controlled heat blanket (37° C.). Under an operating microscope, a 0.5-mm diameter microfiber was glued to the skull (over the area of parietal cortex) with cyanoacrylate glue (Super Glue Gel, Ross Products, Inc.) approximately 6 mm lateral and 1 mm posterior of bregma and connected to a laser-Doppler flowmeter (DRT4, Moor Instruments Ltd, Devon, England). Mice were allowed to return to supine position and a neck midline-incision was made to expose the right common carotid artery (CCA), external carotid artery (ECA), and internal carotid arteries (ICA) after dissecting in through out thyroid glands. All the arteries were separated from the vagus nerve. A specially devised method for making 7-0 Ethilon nylon filament (Ethicon, Inc., Somarville, N.J.) with 5 mm of the tip coated with silicone (Cutter Sil Light and Universal Hardener, Heraeus Kulzer, GmbH, Hanau, Germany) was employed and the filament was introduced into the ICA through the ECA stump to block the blood circulation to MCA or circle of Willis. The filament was carefully advanced up to 11 mm from the carotid artery bifurcation or until resistance was felt. […] CFB was monitored for up to 5 minutes and mice not attaining the required drop were terminated from the study. Cortical perfusion values were expressed as a percentage relative to baseline. Animals were shifted to a humidity/temperature-controlled chamber at 32° C. to maintain the body temperature during the 90 minutes of MCA occlusion, at 37° C. For reperfusion mice were briefly anesthetizing and filament was withdrawn. After suturing the neck, midline wound mice were again returned to a humidity/temperature-controlled chamber for 2 h to maintain the body temperature at 37° C. and then later shifted to their respective cages.

[2] = tested on: MCAO induced brain injury; experiment: Neurological deficit score after MCAO, EC treatment; assay type: in vivo, mouse; settings: for NDS: HO1WT mice
Excerpt: Motor deficits were graded by sensorimotor performance or neurological score by the method of Longa et al. (Stroke. 20:84-91.1989). […] (1) no deficit, (2) forelimb weakness, (3) inability to bear weight on the affected side, (4) no spontaneous motor activity. Epicatechin (EC) was given orally (per kilogram of body weight) through gavage and precautions were taken not only to minimize the stress to animals but also careful administration of the drug solution. For pre-treatment studies, a single dose of EC was given 90 minutes before middle cerebral artery occlusion (MCAO). […] MCAO procedure was slightly modified from the methods previously published by Shah et al. (Shah, et al. in press, 2006). […] To measure relative cerebral blood flow (CBF), mice were placed in a porcine posture on a temperature controlled heat blanket (37° C.). Under an operating microscope, a 0.5-mm diameter microfiber was glued to the skull (over the area of parietal cortex) with cyanoacrylate glue (Super Glue Gel, Ross Products, Inc.) approximately 6 mm lateral and 1 mm posterior of bregma and connected to a laser-Doppler flowmeter (DRT4, Moor Instruments Ltd, Devon, England). Mice were allowed to return to supine position and a neck midline-incision was made to expose the right common carotid artery (CCA), external carotid artery (ECA), and internal carotid arteries (ICA) after dissecting in through out thyroid glands. All the arteries were separated from the vagus nerve. A specially devised method for making 7-0 Ethilon nylon filament (Ethicon, Inc., Somarville, N.J.) with 5 mm of the tip coated with silicone (Cutter Sil Light and Universal Hardener, Heraeus Kulzer, GmbH, Hanau, Germany) was employed and the filament was introduced into the ICA through the ECA stump to block the blood circulation to MCA or circle of Willis. The filament was carefully advanced up to 11 mm from the carotid artery bifurcation or until resistance was felt. […] CFB was monitored for up to 5 minutes and mice not attaining the required drop were terminated from the study. Cortical perfusion values were expressed as a percentage relative to baseline. Animals were shifted to a humidity/temperature-controlled chamber at 32° C. to maintain the body temperature during the 90 minutes of MCA occlusion, at 37° C. For reperfusion mice were briefly anesthetizing and filament was withdrawn. After suturing the neck, midline wound mice were again returned to a humidity/temperature-controlled chamber for 2 h to maintain the body temperature at 37° C. and then later shifted to their respective cages.

[3] = Physiological parameters (pH, PaCO2, PaO2) of mice treated with vehicle and EC; assay type: in vivo, mouse; settings: different drug concentrations and vehicle
Protocol: In a separate cohort of mice (5 WT; 5 Nrf2^−/−) that underwent an identical stroke protocol, including CBF monitoring, blood samples were collected through a PE-10 femoral artery catheter (Intramedic; BD Diagnostic Systems, Sparks, Md.) 30 minutes before MCAO, 1 hour after initiation of MCAO, and 1 hour after reperfusion. The blood was evaluated for pH, PaO2, and PaCO2 via blood gas analysis (Rapidlab 248; Chiron Diagnostic Corporation, Norwood, Mass.). In some experiments, blood was drawn intermittently at different intervals of time; 30 minutes before MCAO, 1 h after the initiation of MCAO, and 1 h after reperfusion.

HO1 WT mice = experiment: 72 h survival after MCAO, EC post-treatment; assay type: in vivo, mouse; settings: EC 30 mg/kg after 2 h or 4.5 h of reperfusion, 10 survived with vehicle
[4] = previous toxicological studies (Galati et al 2006); cited from earlier work

Q: For `Oc1cc(O)c2c(c1)O[C@H](c1ccc(O)c(O)c1)[C@H](O)C2` [EC, (−)-Epicatechin], which corrected infarct volume ([1]; HO1 WT mice, EC 2.5 mg/kg oral 90 min before MCAO, 24 h reperfusion, not significant) is on record?
A: 33.8±3.3%

Q: What about the corrected infarct volume ([1]; HO1 WT mice, EC 5 mg/kg oral 90 min before MCAO, 24 h reperfusion) of the same compound?
A: 28.8±2.9%

Q: And the corrected infarct volume ([1]; HO1 WT mice, EC 15 mg/kg oral 90 min before MCAO, 24 h reperfusion)?
A: 24.9±3.8%

Q: And the infarct volume ([1]; HO1 WT mice, EC 30 mg/kg after 2 h of reperfusion, 72 h, vehicle 46.6±5.3, in %)?
A: 33.5±3.2

Q: And the corrected infarct volume ([1]; HO1 WT mice, EC 30 mg/kg oral 90 min before MCAO (90 min), 24 h reperfusion, vehicle 34.2±3.4%)?
A: 20.1±2.7%

Q: And the infarction volume ([1]; HO1WT mice, EC 30 mg/kg post-treatment (3.5 h after MCAO), 72 h survival, vehicle 46.6±5.3%)?
A: 33.5±3.2%

Q: And the infarct volume ([1]; HO1−/− mice, EC 30 mg/kg 90 min before MCAO, 24 h reperfusion, vehicle 37.1±3.9%, not significant)?
A: 33.8±3.2%

Q: What about the infarct volume ([1]; Nrf2 WT mice, EC 30 mg/kg 90 min before MCAO, 24 h reperfusion, vehicle 31.3±1.9%) of the same compound?
A: 24.1±1.8%

Q: What about the corrected infarct volume ([1]; Nrf2−/− mice, EC 30 mg/kg 90 min before MCAO, 24 h reperfusion, vehicle 44.8±4.6, not significant, in %) of the same compound?
A: 43.0±2.4

Q: And the neurological deficit score ([2]; HO1 WT mice, EC 2.5 mg/kg pre-treatment, no difference vs vehicle)?
A: 3.3±0.29

Q: What about the neurological deficit score ([2]; HO1 WT mice, EC 5 mg/kg pre-treatment) of the same compound?
A: 3±0.35

Q: What about the neurological deficit score ([2]; HO1 WT mice, EC 15 mg/kg pre-treatment) of the same compound?
A: 2.7±0.39

Q: What about the NDS ([2]; EC 30 mg/kg 6 h post-treatment, vehicle 2.3±0.16, not significant) of the same compound?
A: 1.8±0.1

Q: And the neurological deficit score ([2]; HO1 WT mice, EC 30 mg/kg at 3.5 h, scored at 24 h of reperfusion, vehicle 3.5±0.26)?
A: 2.8±0.3

Q: What about the neurological deficit score ([2]; HO1 WT mice, EC 30 mg/kg at 6 h, scored at 24 h of reperfusion, vehicle 3.5±0.26) of the same compound?
A: 1.8±0.1

Q: What about the NDS ([2]; EC 30 mg/kg post-treatment (3.5 h after MCAO), vehicle 2.3±0.1) of the same compound?
A: 1.8±0.1

Q: What about the neurological deficit score ([2]; HO1 WT mice, EC 30 mg/kg pre-treatment) of the same compound?
A: 2.5±0.25

Q: And the neurological deficit score ([2]; Nrf2 WT mice, EC 30 mg/kg pre-treatment, 24 h, vehicle 3.1±0.26)?
A: 2.3±0.1

Q: What about the neurological deficit score ([2]; Nrf2−/− mice, EC 30 mg/kg pre-treatment, 24 h, vehicle 3.5±0.1, not significant) of the same compound?
A: 3.4±0.17

Q: What about the “physiological parameters (pH, PaCo2, Pao2) vs vehicle” value [3] of the same compound?
A: no differences

Q: What about the “mice surviving 72 h (of 12 per group)” value (HO1 WT mice) of the same compound?
A: 12 mice

Q: What about the safe dose [4] of the same compound?
A: up to 150 mg
